# Laboratory results reported in the supplement of paper PMC10307832.
# Legend:
# Assay in all cases: relative viability (nuclei count vs DMSO), 5 days (fraction); higher = more cells survive
# NCI-H1666 = test system: NCI-H1666
# In short: (§1)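 The day after seeding in 1536-well plates, lung cancer cell lines were treated by pin tool with a single drug, or with a fixed anchor-drug dose together with five library-drug doses (not always all listed) in √10 steps. After 5 days, a combined fix-and-stain solution (final 0.05% Triton X-100, 1% formaldehyde, 1 ug/ml Hoechst) was added. Nuclei counted on 4× images gave relative viability as treated counts over vehicle counts, reported as the median of duplicate plates.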
# NCI-H23 = test system: NCI-H23
# In short: as §1
# HCC-78 = test system: HCC-78
# In short: as §1
# NCI-H2126 = test system: NCI-H2126
# In short: as §1
# NCI-H650 = test system: NCI-H650
# In short: as §1
# NCI-H520 = test system: NCI-H520
# In short: as §1
# NCI-H661 = test system: NCI-H661
# In short: as §1
# LC-2-ad = test system: LC-2-ad
# In short: as §1
# RERF-LC-KJ = test system: RERF-LC-KJ
# In short: as §1
# HCC-827 = test system: HCC-827
# In short: as §1
# NCI-H1915 = test system: NCI-H1915
# In short: as §1
# NCI-H2087 = test system: NCI-H2087
# In short: as §1
# NCI-H2347 = test system: NCI-H2347
# In short: as §1
# EPLC-272H = test system: EPLC-272H
# In short: as §1
# COR-L 105 = test system: COR-L 105
# In short: as §1
# PC-14 = test system: PC-14
# In short: as §1
# H3255 = test system: H3255
# In short: as §1
# LCLC-97TM1 = test system: LCLC-97TM1
# In short: as §1
# NCI-H647 = test system: NCI-H647
# In short: as §1
# NCI-H2405 = test system: NCI-H2405
# In short: as §1
# ChaGo-K-1 = test system: ChaGo-K-1
# In short: as §1
# NCI-H322M = test system: NCI-H322M
# In short: as §1
# 201T = test system: 201T
# In short: as §1
compound,measurement,setting,value
Oc1nc(-c2ccc(C(F)(F)F)cc2)nc2c1CSCC2 [XAV939] + CC(C)C[C@H](NC(=O)[C@H](Cc1ccccc1)NC(=O)c1cnccn1)B(O)O [Bortezomib] (partner 0.002 µM),relative viability,NCI-H1666; first compound 0.08 µM,0.813
same,relative viability,NCI-H1666; first compound 0.253 µM,0.611
same,relative viability,NCI-H1666; first compound 0.8 µM,0.422
same,relative viability,NCI-H1666; first compound 2.53 µM,0.5
same,relative viability,NCI-H23; first compound 0.08 µM,0.992
same,relative viability,NCI-H23; first compound 0.253 µM,1.12
same,relative viability,NCI-H23; first compound 0.8 µM,0.989
same,relative viability,NCI-H23; first compound 2.53 µM,0.886
same,relative viability,HCC-78; first compound 0.08 µM,0.517
same,relative viability,HCC-78; first compound 0.253 µM,0.363
same,relative viability,HCC-78; first compound 0.8 µM,0.526
same,relative viability,HCC-78; first compound 2.53 µM,0.405
same,relative viability,NCI-H2126; first compound 0.08 µM,1.18
same,relative viability,NCI-H2126; first compound 0.253 µM,0.984
same,relative viability,NCI-H2126; first compound 0.8 µM,1.08
same,relative viability,NCI-H2126; first compound 2.53 µM,1.02
same,relative viability,NCI-H650; first compound 0.08 µM,0.838
same,relative viability,NCI-H650; first compound 0.253 µM,0.882
same,relative viability,NCI-H650; first compound 0.8 µM,0.854
same,relative viability,NCI-H650; first compound 2.53 µM,0.703
same,relative viability,NCI-H520; first compound 0.08 µM,0.612
same,relative viability,NCI-H520; first compound 0.253 µM,0.317
same,relative viability,NCI-H520; first compound 0.8 µM,0.659
same,relative viability,NCI-H520; first compound 2.53 µM,0.368
same,relative viability,NCI-H661; first compound 0.08 µM,0.866
same,relative viability,NCI-H661; first compound 0.253 µM,0.707
same,relative viability,NCI-H661; first compound 0.8 µM,0.95
same,relative viability,NCI-H661; first compound 2.53 µM,0.495
same,relative viability,LC-2-ad; first compound 0.08 µM,1.01
same,relative viability,LC-2-ad; first compound 0.253 µM,0.919
same,relative viability,LC-2-ad; first compound 0.8 µM,0.984
same,relative viability,LC-2-ad; first compound 2.53 µM,0.887
same,relative viability,RERF-LC-KJ; first compound 0.08 µM,0.864
same,relative viability,RERF-LC-KJ; first compound 0.253 µM,0.98
same,relative viability,RERF-LC-KJ; first compound 0.8 µM,0.886
same,relative viability,RERF-LC-KJ; first compound 2.53 µM,0.744
same,relative viability,HCC-827; first compound 0.08 µM,1.03
same,relative viability,HCC-827; first compound 0.253 µM,0.868
same,relative viability,HCC-827; first compound 0.8 µM,1.07
same,relative viability,HCC-827; first compound 2.53 µM,1.09
same,relative viability,NCI-H1915; first compound 0.08 µM,1.06
same,relative viability,NCI-H1915; first compound 0.253 µM,0.974
same,relative viability,NCI-H1915; first compound 0.8 µM,0.983
same,relative viability,NCI-H1915; first compound 2.53 µM,1.14
same,relative viability,NCI-H2087; first compound 0.08 µM,0.864
same,relative viability,NCI-H2087; first compound 0.253 µM,0.595
same,relative viability,NCI-H2087; first compound 0.8 µM,0.938
same,relative viability,NCI-H2087; first compound 2.53 µM,0.763
same,relative viability,NCI-H2347; first compound 0.08 µM,1.27
same,relative viability,NCI-H2347; first compound 0.253 µM,0.75
same,relative viability,NCI-H2347; first compound 0.8 µM,1.02
same,relative viability,NCI-H2347; first compound 2.53 µM,0.837
same,relative viability,EPLC-272H; first compound 0.08 µM,1.05
same,relative viability,EPLC-272H; first compound 0.253 µM,0.816
same,relative viability,EPLC-272H; first compound 0.8 µM,1.02
same,relative viability,EPLC-272H; first compound 2.53 µM,0.91
same,relative viability,COR-L 105; first compound 0.08 µM,0.853
same,relative viability,COR-L 105; first compound 0.253 µM,0.755
same,relative viability,COR-L 105; first compound 0.8 µM,0.618
same,relative viability,COR-L 105; first compound 2.53 µM,0.567
same,relative viability,PC-14; first compound 0.08 µM,0.825
same,relative viability,PC-14; first compound 0.253 µM,0.808
same,relative viability,PC-14; first compound 0.8 µM,0.846
same,relative viability,PC-14; first compound 2.53 µM,0.794
same,relative viability,H3255; first compound 0.08 µM,1.05
same,relative viability,H3255; first compound 0.253 µM,0.716
same,relative viability,H3255; first compound 0.8 µM,0.62
same,relative viability,H3255; first compound 2.53 µM,0.853
same,relative viability,LCLC-97TM1; first compound 0.08 µM,0.589
same,relative viability,LCLC-97TM1; first compound 0.253 µM,0.517
same,relative viability,LCLC-97TM1; first compound 0.8 µM,0.472
same,relative viability,LCLC-97TM1; first compound 2.53 µM,0.505
same,relative viability,NCI-H647; first compound 0.08 µM,1.16
same,relative viability,NCI-H647; first compound 0.253 µM,0.747
same,relative viability,NCI-H647; first compound 0.8 µM,0.81
same,relative viability,NCI-H647; first compound 2.53 µM,0.988
same,relative viability,NCI-H2405; first compound 0.08 µM,1.04
same,relative viability,NCI-H2405; first compound 0.253 µM,0.719
same,relative viability,NCI-H2405; first compound 0.8 µM,0.893
same,relative viability,NCI-H2405; first compound 2.53 µM,0.959
same,relative viability,ChaGo-K-1; first compound 0.08 µM,0.967
same,relative viability,ChaGo-K-1; first compound 0.253 µM,0.848
same,relative viability,ChaGo-K-1; first compound 0.8 µM,0.981
same,relative viability,ChaGo-K-1; first compound 2.53 µM,0.941
same,relative viability,NCI-H322M; first compound 0.08 µM,1.39
same,relative viability,NCI-H322M; first compound 0.253 µM,0.996
same,relative viability,NCI-H322M; first compound 0.8 µM,1.1
same,relative viability,NCI-H322M; first compound 2.53 µM,0.976
same,relative viability,201T; first compound 0.08 µM,1.12
same,relative viability,201T; first compound 0.253 µM,0.981
same,relative viability,201T; first compound 0.8 µM,1.08
same,relative viability,201T; first compound 2.53 µM,0.979
